According to patent US12391679B2, “Benzamide-substituted bicyclic imidazo- and pyrazolo-fused -pyridine, -pyrimide, and -pyridazine compounds for treatment of inflammatory diseases” (ONCO3R Therapeutics BV, priority 2019, dated 2025):

How the values were obtained:
[1] = test system: B10.RIII mice, IL-23 EEV; assay: Murine model of psoriatic arthritis induced by overexpression of IL-23; type: in vivo; conditions: mouse, IL-23 overexpression
Description: Mouse IL-23 enhanced episomal expression vector (EEV) was obtained from System Biosciences (Cat #EEV651A-1). Mouse IL-23 Quantikine ELISA Kits were obtained from R&D Systems (Cat #M2300). ProSense® 680 and OsteoSense® 750EX were obtained from PerkinElmer (Cat #NEV10003 and NEV10053EX). RNAlater® was obtained from Ambion (Cat #AM7021). Imalgene® 1000 (Merial) and Rompun® 2% (Bayer) were obtained from Centravet (Cat #IMA004-6827812 and ROM001-6835444).
B10.RIII mice (male, 8-week old) were obtained from Charles River (Écully, France). Mice were kept on a 12 h light/dark cycle. Temperature was maintained at 22±2° C., food and water were provided ad libitum.
The design of the study is adapted from Sherlock J P. et al. (Sherlock et al. 2012).
On the first day (D1), the mice underwent a hydrodynamic injection of Ringer or IL-23 EEV in Ringer into the tail vein.
As of D5, twice a week, the mice were scored for clinical symptoms until the end of the experiment.
On D5, blood was collected by puncture in the submandibular vein to assess the serum IL-23 concentration.
On D9, mice from all groups received ProSense® 680 probe (0.8 nmol/10 g, i.p.). On D10, the mice were anesthetized. Granulocyte infiltration was then measured using in vivo molecular imaging (Bruker In-Vivo Xtreme imaging system).
On D11, randomization was performed according to ProSense® 680 molecular imaging and scoring.
As of D12, mice were dosed with test compound or with vehicle.
On D36, mice from all groups were sacrificed 2 h after last administration of compound.
Twice weekly, clinical signs of inflammation were scored: 0 for normal paw; 1 if swelling of one digit; 2 if swelling of two or more digits; 3 if swelling of the entire paw. The scores of all limbs were summed up to produce a global score.
There were 10 mice per group. The results are expressed as mean±SEM and statistical analysis is performed using one-way ANOVA followed by Dunnett's post-hoc test versus diseased vehicle group for scoring and imaging analysis, versus sham vehicle group for body weight.

[2] = target: T1, SIK3 (Homo sapiens, UniProt Q9Y2K2); assay: 33P radioactive kinase assay, SIK3; type: biochemical; conditions: 33P radioactive assay; AMARA 7 μM; 15 μM ATP; 80 min; average IC50
T1 construct: purchased SignalChem S12-11G-100
How it was run: (§1)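 SIK1, SIK2 or SIK3 phosphorylation of AMARA peptide with [33P]-γ-ATP plus unlabeled ATP. 10-point 1/5 dilution series, 1% DMSO final; reactions stopped with phosphoric acid, filter-harvested and scintillation-counted. Percentage inhibition and average IC50 derived from dose-response curves.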

[3] = target: T2, SIK2 (Homo sapiens, UniProt Q9H0K1); assay: 33P radioactive kinase assay, SIK2; type: biochemical; note: AMARA 5 µM, 10 µM ATP
T2 construct: purchased ThermoFisher Scientific PV4792
How it was run: as §1

[4] = target: T3, SIK1 (Homo sapiens, UniProt P57059); assay: 33P radioactive kinase assay, SIK1; type: biochemical
T3 construct: purchased Carna Biosciences 02-131
How it was run: as §1

[5] = test system: mouse CIA model; assay: Collagen induced arthritis (CIA) model; type: in vivo
Description: Completed Freund's adjuvant (CFA) and incomplete Freund's adjuvant (IFA) were purchased from Difco. Bovine collagen type II (CII), lipopolysaccharide (LPS), and Enbrel® (etanercept) were obtained from Chondrex (L'Isle d'Abeau, France); Sigma (P4252, L'Isle d'Abeau, France), Wyeth (25 mg injectable syringe, France), respectively. All other reagents used were of reagent grade and all solvents were of analytical grade.
DBA1/J mice (male, 7-8 weeks old) were obtained from Charles River Laboratories (Écully, France). Mice were kept on a 12 h light/dark cycle. Temperature was maintained at 22° C., and food and water were provided ad libitum.
One day before the experiment, CII solution (2 mg/mL) was prepared with 0.05 M AcOH and stored at 4° C. Just before the immunization, equal volumes of adjuvant (IFA) and CII were mixed by a homogenizer in a pre-cooled glass bottle in an ice water bath. Extra adjuvant and prolonged homogenization may be required if an emulsion is not formed. 0.2 mL of the emulsion was injected intradermally at the base of the tail of each mouse on day 1, a second booster intradermal injection (CII solution at 2 mg/mL in […] 0.1 mL saline) was performed on […]. This immunization method was modified from published methods (Jou et al. 2005; Sims et al. 2004).
The therapeutic effects of the compounds were tested in the mouse CIA model. Mice were randomly divided into equal groups and each group contained 10 mice. All mice were immunized on day 1 and boosted on day 21. The negative control group was treated with vehicle (MC 0.5%) and the positive control group with Enbrel® (10 mg/kg, 3× week, sc). A compound of interest was typically tested at 3 doses per os (p.o.). At day 32, randomization between groups was performed with respect with clinical score and animals were therapeutically treated regarding their group until day 47. Body weight and clinical score, were recorded at least twice a week.
Arthritis is scored according to the method of Khachigian 2006, Lin et al 2007 and Nishida et al. 2004 (Khachigian 2006; Lin et al. 2007; Nishida et al. 2004). […]

T3 sequence (P57059 whole entry): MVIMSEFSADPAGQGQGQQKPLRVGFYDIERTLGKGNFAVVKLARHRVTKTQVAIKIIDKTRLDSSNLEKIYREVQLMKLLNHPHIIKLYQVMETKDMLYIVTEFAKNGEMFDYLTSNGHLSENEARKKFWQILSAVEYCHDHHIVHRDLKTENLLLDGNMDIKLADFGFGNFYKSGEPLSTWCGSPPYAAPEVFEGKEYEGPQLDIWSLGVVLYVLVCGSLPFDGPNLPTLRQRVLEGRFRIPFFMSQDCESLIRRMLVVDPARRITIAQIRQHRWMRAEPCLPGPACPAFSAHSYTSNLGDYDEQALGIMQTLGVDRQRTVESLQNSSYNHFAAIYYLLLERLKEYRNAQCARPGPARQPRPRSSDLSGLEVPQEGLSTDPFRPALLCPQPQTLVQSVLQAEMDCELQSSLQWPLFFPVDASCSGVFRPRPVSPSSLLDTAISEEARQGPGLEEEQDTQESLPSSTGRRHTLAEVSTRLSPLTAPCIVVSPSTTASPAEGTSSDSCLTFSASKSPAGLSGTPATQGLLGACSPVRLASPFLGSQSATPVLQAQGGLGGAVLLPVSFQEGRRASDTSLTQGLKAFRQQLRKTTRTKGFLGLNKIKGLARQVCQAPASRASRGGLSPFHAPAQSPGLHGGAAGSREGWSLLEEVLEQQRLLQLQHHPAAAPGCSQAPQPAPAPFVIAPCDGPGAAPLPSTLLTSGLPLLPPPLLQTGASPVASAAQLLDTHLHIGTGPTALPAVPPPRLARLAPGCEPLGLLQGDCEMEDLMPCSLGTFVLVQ
T2 sequence (Q9H0K1 whole entry): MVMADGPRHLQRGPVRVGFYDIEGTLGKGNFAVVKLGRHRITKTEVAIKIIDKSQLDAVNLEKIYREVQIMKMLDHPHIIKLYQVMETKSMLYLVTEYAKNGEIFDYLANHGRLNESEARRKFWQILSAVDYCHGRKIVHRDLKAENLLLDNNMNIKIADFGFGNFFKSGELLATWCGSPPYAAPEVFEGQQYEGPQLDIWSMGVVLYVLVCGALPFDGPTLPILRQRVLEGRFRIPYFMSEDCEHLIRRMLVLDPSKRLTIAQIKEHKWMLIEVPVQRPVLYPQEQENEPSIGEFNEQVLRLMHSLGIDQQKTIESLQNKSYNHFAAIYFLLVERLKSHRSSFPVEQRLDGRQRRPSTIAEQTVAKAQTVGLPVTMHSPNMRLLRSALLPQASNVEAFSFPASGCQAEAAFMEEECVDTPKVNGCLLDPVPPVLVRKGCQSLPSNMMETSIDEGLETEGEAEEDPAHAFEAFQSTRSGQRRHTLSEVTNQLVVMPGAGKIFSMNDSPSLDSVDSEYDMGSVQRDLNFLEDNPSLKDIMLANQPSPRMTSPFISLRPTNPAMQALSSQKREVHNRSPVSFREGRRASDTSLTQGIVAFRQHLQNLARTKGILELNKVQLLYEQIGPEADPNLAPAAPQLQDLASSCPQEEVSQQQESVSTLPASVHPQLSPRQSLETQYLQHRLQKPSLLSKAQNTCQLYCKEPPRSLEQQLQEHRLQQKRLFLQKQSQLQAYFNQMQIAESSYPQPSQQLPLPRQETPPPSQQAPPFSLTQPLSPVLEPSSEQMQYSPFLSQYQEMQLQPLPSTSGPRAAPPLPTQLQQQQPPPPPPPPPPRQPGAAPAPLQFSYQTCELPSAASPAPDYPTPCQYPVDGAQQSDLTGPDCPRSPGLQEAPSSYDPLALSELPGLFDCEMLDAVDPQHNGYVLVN
T1 sequence (Q9Y2K2 59-365 limits assumed): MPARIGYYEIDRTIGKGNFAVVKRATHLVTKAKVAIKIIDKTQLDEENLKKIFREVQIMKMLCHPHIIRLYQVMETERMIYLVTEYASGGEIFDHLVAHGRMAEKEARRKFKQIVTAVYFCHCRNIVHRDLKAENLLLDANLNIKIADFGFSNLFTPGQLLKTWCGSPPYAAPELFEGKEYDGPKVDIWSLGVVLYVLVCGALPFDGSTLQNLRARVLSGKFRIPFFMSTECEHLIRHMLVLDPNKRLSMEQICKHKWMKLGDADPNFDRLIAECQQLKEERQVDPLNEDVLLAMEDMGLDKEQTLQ

SMILES | IC50 [2] [nM] | IC50 [3] [nM] | IC50 [4] [nM] | also measured
COc1cc(-c2cnc3cc(C(C)(C)C#N)ccn23)cc(OC(F)F)c1C(=O)NC1CC1 [Cpd 19, 4-[7-(1-cyano-1-methyl-ethyl)imidazo[1,2-a]pyridin-3-yl]-N-cyclopropyl-2-(difluoromethoxy)-6-methoxy-benzamide] | 0.01 to 10 | > 500 | > 500 | clinical score compared to diseased vehicle group ([1]; 10 mg/kg p.o. b.i.d.): statistically significant decrease
CCC(C)(C#N)c1ccn2c(-c3cc(OC)c(C(=O)NC4CC4)c(OC(F)F)c3)cnc2c1 (stereo not shown) [Cpd 27, 4-[7-(1-cyano-1-methyl-propyl)imidazo[1,2-a]pyridin-3-yl]-N-cyclopropyl-2-(difluoromethoxy)-6-methoxy-benzamide] | 10 to 100 | > 500 | > 500 | –
COc1cc(-c2cnc3cc(C(C)(C)C#N)ccn23)cc(OC)c1C(=O)NC1CC1 [Cpd 28, 4-[7-(1-cyano-1-methyl-ethyl)imidazo[1,2-a]pyridin-3-yl]-N-cyclopropyl-2,6-dimethoxy-benzamide] | 10 to 100 | > 500 | > 500 | –
COc1cc(-c2cnc3cc(C4(C#N)CC4)ccn23)cc(OC(F)F)c1C(=O)NC1CC1 [Cpd 33, 4-[7-(1-cyanocyclopropyl)imidazo[1,2-a]pyridin-3-yl]-N-cyclopropyl-2-(difluoromethoxy)-6-methoxy-benzamide] | 0.01 to 10 | 10 to 100 | 100 to 500 | –
COc1cc(-c2cnc3cc(C4COC4)ccn23)cc(OC(F)F)c1C(=O)NC1CC1 [Cpd 174, N-cyclopropyl-2-(difluoromethoxy)-6-methoxy-4-[7-(oxetan-3-yl)imidazo[1,2-a]pyridin-3-yl]benzamide] | – | – | – | clinical score compared to diseased vehicle group ([1]; 30 mg/kg p.o. b.i.d.): statistically significant decrease; clinical score compared to the vehicle group ([5]; 60 mg/kg p.o. b.i.d.): statistically significant decrease
COc1cc(-c2cnn3cc(C(C)(C)C#N)ccc23)cc(OC(F)F)c1C(=O)N[C@@H]1C[C@@H]1F [Cpd 219, 4-[6-(1-cyano-1-methyl-ethyl)pyrazolo[1,5-a]pyridin-3-yl]-2-(difluoromethoxy)-N-[(1R,2S)-2-fluorocyclopropyl]-6-methoxy-benzamide] | – | – | – | clinical score compared to diseased vehicle group ([1]; 3 mg/kg p.o. b.i.d.): statistically significant decrease; clinical score compared to the vehicle group ([5]; 3 mg/kg p.o. b.i.d.): statistically significant decrease
COc1cc(-c2cnn3cc(C4(N)CCC4)ccc23)cc(OC(F)F)c1C(=O)N[C@@H]1C[C@@H]1F [Cpd 261, 4-[6-(1-aminocyclobutyl)pyrazolo[1,5-a]pyridin-3-yl]-2-(difluoromethoxy)-N-[(1R,2S)-2-fluorocyclopropyl]-6-methoxy-benzamide] | – | – | – | clinical score compared to diseased vehicle group ([1]; 50 mg/kg p.o. b.i.d.): statistically significant decrease; clinical score compared to the vehicle group ([5]; 30 mg/kg p.o. b.i.d.): statistically significant decrease
